Reference: PubChem BioAssay (NCI)
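Results reflect a 48-hour exposure of cells in 96-well plates to compound at five concentrations. GI50 is the concentration that inhibits growth by half. TGI: total growth inhibition.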

Legend:
Test in all cases: NCI tumour cell line growth inhibition, 48 h
SK-MEL-28 melanoma = test system: SK-MEL-28 melanoma
UO-31 renal = test system: UO-31 renal
UACC-257 melanoma = test system: UACC-257 melanoma
SK-OV-3 ovarian = test system: SK-OV-3 ovarian
COLO 205 colon = test system: COLO 205 colon
NCI/ADR-RES ovarian = test system: NCI/ADR-RES ovarian
RXF 393 renal = test system: RXF 393 renal
PC-3 prostate = test system: PC-3 prostate
DU-145 prostate = test system: DU-145 prostate
TK-10 renal = test system: TK-10 renal

Compound: CC(=O)OC12COC1CC(O)C1(C)C(=O)C(O)C3=C(C)C(O)CC(O)(C(OC(=O)c4ccccc4)C21)C3(C)C (stereo not given)
- TGI (SK-MEL-28 melanoma): > 100 µM
- TGI (UO-31 renal): > 100 µM
- TGI (UACC-257 melanoma): > 100 µM
- TGI (SK-OV-3 ovarian): > 100 µM
- TGI (COLO 205 colon): 5.29 µM
- TGI (NCI/ADR-RES ovarian): > 100 µM
- TGI (RXF 393 renal): > 100 µM
- TGI (PC-3 prostate): > 28.5 µM
- TGI (DU-145 prostate): > 100 µM
- TGI (TK-10 renal): > 100 µM

Compound: CS(=O)(=O)CC(=O)c1ccccc1
- TGI (SK-MEL-28 melanoma): > 100 µM
- TGI (UO-31 renal): > 100 µM
- TGI (UACC-257 melanoma): > 100 µM
- TGI (SK-OV-3 ovarian): > 100 µM
- TGI (COLO 205 colon): > 100 µM
- TGI (NCI/ADR-RES ovarian): > 100 µM
- TGI (RXF 393 renal): > 100 µM
- TGI (PC-3 prostate): > 100 µM
- TGI (DU-145 prostate): > 100 µM
- TGI (TK-10 renal): > 100 µM

Compound: CCCCCCCCCCCCOC1C(CNC(=O)C2OC3OC(C)(C)OC3C2NC(=O)Nc2ccc(CC(=O)NC(Cc3ccccc3)C(=O)O)cc2)OC2OC(C)(C)OC21 (stereo not given)
- GI50 (SK-MEL-28 melanoma): > 25 µM
- TGI (SK-MEL-28 melanoma): > 25 µM
- GI50 (UO-31 renal): > 25 µM
- TGI (UO-31 renal): > 25 µM
- GI50 (UACC-257 melanoma): > 25 µM
- TGI (UACC-257 melanoma): > 25 µM
- GI50 (SK-OV-3 ovarian): > 25 µM
- TGI (SK-OV-3 ovarian): > 25 µM
- GI50 (COLO 205 colon): > 25 µM
- TGI (COLO 205 colon): > 25 µM
- GI50 (NCI/ADR-RES ovarian): > 25 µM
- TGI (NCI/ADR-RES ovarian): > 25 µM
- GI50 (RXF 393 renal): 13.3 µM
- TGI (RXF 393 renal): > 25 µM
- GI50 (PC-3 prostate): > 25 µM
- TGI (PC-3 prostate): > 25 µM
- GI50 (DU-145 prostate): > 25 µM
- TGI (DU-145 prostate): > 25 µM
- GI50 (TK-10 renal): > 25 µM
- TGI (TK-10 renal): > 25 µM

Compound: O=C(O)c1ccc(C(=O)O)c(C(=O)Nc2ccc3c(c2)C(=O)c2ccccc2-3)c1
- TGI (SK-MEL-28 melanoma): > 100 µM
- TGI (UO-31 renal): > 100 µM
- TGI (UACC-257 melanoma): > 100 µM
- TGI (SK-OV-3 ovarian): > 100 µM
- TGI (COLO 205 colon): > 100 µM
- TGI (NCI/ADR-RES ovarian): > 100 µM
- TGI (RXF 393 renal): > 100 µM
- TGI (PC-3 prostate): > 100 µM
- TGI (DU-145 prostate): > 100 µM
- TGI (TK-10 renal): > 100 µM

Compound: N#C[Se]CCCNS(=O)(=O)C1CC2C=CC1C2 (stereo not given)
- GI50 (SK-MEL-28 melanoma): 0.486 µM
- TGI (SK-MEL-28 melanoma): 2.77 µM
- GI50 (UO-31 renal): 0.338 µM
- TGI (UO-31 renal): 1.43 µM
- GI50 (UACC-257 melanoma): 0.648 µM
- TGI (UACC-257 melanoma): 3.09 µM
- GI50 (SK-OV-3 ovarian): 2.77 µM
- TGI (SK-OV-3 ovarian): 5.65 µM
- GI50 (COLO 205 colon): 2.3 µM
- TGI (COLO 205 colon): 5.83 µM
- GI50 (NCI/ADR-RES ovarian): 0.57 µM
- TGI (NCI/ADR-RES ovarian): 5.12 µM
- GI50 (RXF 393 renal): 0.364 µM
- TGI (RXF 393 renal): 1.34 µM
- GI50 (PC-3 prostate): 0.704 µM
- TGI (PC-3 prostate): 3.83 µM
- GI50 (DU-145 prostate): 1.06 µM
- TGI (DU-145 prostate): 2.58 µM
- GI50 (TK-10 renal): 0.403 µM
- TGI (TK-10 renal): 2.33 µM

Compound: Cc1cc(N(CCCl)CCCl)ccc1C=Nc1ccc2ccccc2c1
- GI50 (SK-MEL-28 melanoma): > 100 µM
- TGI (SK-MEL-28 melanoma): > 100 µM
- GI50 (UO-31 renal): 8.71 µM
- TGI (UO-31 renal): > 100 µM
- GI50 (UACC-257 melanoma): 3.17 µM
- TGI (UACC-257 melanoma): > 39.6 µM
- GI50 (SK-OV-3 ovarian): 19.3 µM
- TGI (SK-OV-3 ovarian): > 100 µM
- GI50 (COLO 205 colon): 13.2 µM
- TGI (COLO 205 colon): > 82.6 µM
- GI50 (NCI/ADR-RES ovarian): 9.62 µM
- TGI (NCI/ADR-RES ovarian): > 100 µM
- GI50 (RXF 393 renal): 13.4 µM
- TGI (RXF 393 renal): > 96 µM
- GI50 (PC-3 prostate): 17 µM
- TGI (PC-3 prostate): > 100 µM
- GI50 (DU-145 prostate): 7.71 µM
- TGI (DU-145 prostate): > 100 µM
- GI50 (TK-10 renal): 24.5 µM
- TGI (TK-10 renal): > 100 µM

Compound: COc1cc(-c2c(C#N)c(N)nc(N3CCOCC3)c2C#N)cc(OC)c1OC
- GI50 (SK-MEL-28 melanoma): > 100 µM
- TGI (SK-MEL-28 melanoma): > 100 µM
- GI50 (UO-31 renal): 96.1 µM
- TGI (UO-31 renal): > 100 µM
- GI50 (UACC-257 melanoma): > 100 µM
- TGI (UACC-257 melanoma): > 100 µM
- GI50 (SK-OV-3 ovarian): 81.1 µM
- TGI (SK-OV-3 ovarian): > 100 µM
- GI50 (COLO 205 colon): 5.39 µM
- TGI (COLO 205 colon): > 100 µM
- GI50 (NCI/ADR-RES ovarian): > 100 µM
- TGI (NCI/ADR-RES ovarian): > 100 µM
- GI50 (RXF 393 renal): > 100 µM
- TGI (RXF 393 renal): > 100 µM
- GI50 (PC-3 prostate): > 100 µM
- TGI (PC-3 prostate): > 100 µM
- GI50 (DU-145 prostate): > 100 µM
- TGI (DU-145 prostate): > 100 µM
- GI50 (TK-10 renal): > 100 µM
- TGI (TK-10 renal): > 100 µM
